Assays:
[1] = target: T1, Zα domain of ADAR1 p150 (Homo sapiens, UniProt P55265); test: SPR binding assay; settings: 6× his tag Zα domain immobilized on CM5 chip, analyte 0-25 μM
T1 construct: 10 μg/ml of Zα domain of ADAR1 was immobilized on CM5 chip using anti-HIS antibody; made in house
T1 sequence (P55265 133-199 limits assumed): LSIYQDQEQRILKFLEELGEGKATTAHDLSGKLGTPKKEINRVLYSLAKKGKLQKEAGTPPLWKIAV
Protocol: 6× his tag Za domain of ADAR1 p150 was purified using bacterial purification system. Protein was isolated from supernatant of cell lysate using Ni-NTA resin. For binding assay using SPR, 10 μg/ml of Zα domain of ADAR1 was immobilized on CM5 chip using anti-HIS antibody. Binding was quantified using the following condition below: • Analyte: 25, 12.5, 6.25, 3.125, 1.56, 0.78, 0 μM • Contact time—60 seconds, • Dissociation time—320 seconds • Flow rate—30 μL/minute Running buffer-PBSP+5% DMSO • After curve fitting, Kd values for synthesized compounds was quantified using the instrument software.

[2] = target: T2, ADAR1 (Homo sapiens, UniProt P55265); test: ADAR1 Inhibition Assay (IFN fold-induction, Quanti-Luc luminescence, p110 KO A549 dual cells); format: cell-based; settings: IFN fold-induction vs DMSO, 24 and 48 h
T2 construct: endogenous in cells; host or cells: p110 KO A549 dual cells
T2 sequence (P55265 1-1226): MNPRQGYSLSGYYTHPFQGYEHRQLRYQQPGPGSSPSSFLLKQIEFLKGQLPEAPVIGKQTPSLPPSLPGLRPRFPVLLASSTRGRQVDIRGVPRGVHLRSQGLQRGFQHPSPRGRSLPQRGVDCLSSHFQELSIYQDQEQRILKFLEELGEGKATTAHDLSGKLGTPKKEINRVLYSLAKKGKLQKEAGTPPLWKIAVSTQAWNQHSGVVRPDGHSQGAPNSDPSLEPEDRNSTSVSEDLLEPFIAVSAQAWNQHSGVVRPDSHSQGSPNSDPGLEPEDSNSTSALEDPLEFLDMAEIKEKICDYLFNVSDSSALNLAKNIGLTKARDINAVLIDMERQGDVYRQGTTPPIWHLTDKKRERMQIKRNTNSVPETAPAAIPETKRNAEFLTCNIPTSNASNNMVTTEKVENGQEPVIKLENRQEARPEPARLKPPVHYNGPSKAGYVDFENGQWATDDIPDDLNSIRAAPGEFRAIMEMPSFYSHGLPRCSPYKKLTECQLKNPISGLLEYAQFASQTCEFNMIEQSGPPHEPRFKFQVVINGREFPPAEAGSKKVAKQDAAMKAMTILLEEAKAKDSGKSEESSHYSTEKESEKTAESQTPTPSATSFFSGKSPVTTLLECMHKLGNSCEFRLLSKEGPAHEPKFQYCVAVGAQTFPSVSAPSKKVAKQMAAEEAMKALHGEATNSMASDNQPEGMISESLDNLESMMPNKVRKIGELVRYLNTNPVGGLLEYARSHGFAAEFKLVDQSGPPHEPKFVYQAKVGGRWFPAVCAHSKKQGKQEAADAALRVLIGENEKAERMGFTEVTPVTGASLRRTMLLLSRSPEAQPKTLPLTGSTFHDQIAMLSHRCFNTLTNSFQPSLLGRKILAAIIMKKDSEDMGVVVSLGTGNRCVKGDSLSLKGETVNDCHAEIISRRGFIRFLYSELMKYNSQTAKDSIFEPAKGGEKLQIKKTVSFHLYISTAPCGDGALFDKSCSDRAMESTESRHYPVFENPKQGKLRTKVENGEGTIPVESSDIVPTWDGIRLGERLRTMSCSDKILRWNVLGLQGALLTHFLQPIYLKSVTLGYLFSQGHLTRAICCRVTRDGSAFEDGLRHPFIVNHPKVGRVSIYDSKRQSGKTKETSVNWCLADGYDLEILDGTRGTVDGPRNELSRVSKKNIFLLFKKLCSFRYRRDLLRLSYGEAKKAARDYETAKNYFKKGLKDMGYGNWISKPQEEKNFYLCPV
Outline: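 p110 KO A549 dual cells (20,000/well) in supplemented DMEM, treated next day with compound at 1% final DMSO for 24 and 48 h at 37 °C, 5% CO2. Supernatant luminescence read with Quanti-Luc; IFN fold-induction = sample RLU/mean DMSO RLU, used for EC50.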

Kd [1] [µM]	EC50 [2] [µM]	Compound
≤ 1	> 100	CCOC(=O)c1cc(-c2ccccc2)sc1NC(=O)COC(=O)c1cccc(P(=O)(O)O)c1 [Compound 325]
≤ 1	> 100	CCOC(=O)c1cc(-c2ccccc2)sc1NC(=O)CNC(=O)Cc1cccc(C(F)(F)F)c1 [Compound 326]
≤ 1	> 100	CCOC(=O)c1cc(-c2ccccc2)sc1NC(=O)CNC(=O)Cc1ccc(S(C)(=O)=O)cc1 [Compound 327]
≤ 1	> 100	CCOC(=O)c1cc(-c2ccccc2)sc1NC(=O)CNC(=O)Cc1cccc(OC(F)(F)F)c1 [Compound 328]
1 to 10	> 100	CCOC(=O)c1cc(-c2ccccc2)sc1-c1coc(CNc2cccc(NS(C)(=O)=O)c2)c1 [Compound 329]
≤ 1	> 100	CCOC(=O)c1cc(-c2ccccc2)sc1NC(=O)CNC(=O)Cc1cccc(Br)c1 [Compound 330]
≤ 1	> 100	CCOC(=O)c1cc(N)nn1C(=O)COC(=O)c1cccc(NS(C)(=O)=O)c1 [Compound 346]
≤ 1	> 100	CCOC(=O)c1cc(-c2ccccc2)sc1NC(=O)CNC(=O)Cc1cccc(P(=O)(O)O)c1 [Compound 350]
≤ 1	> 100	CCOC(=O)c1cc(-c2ccccc2)sc1NC(=O)CNC(=O)Cc1cccc(OS(N)(=O)=O)c1 [Compound 351]
≤ 1	> 100	CCOC(=O)c1cc(-c2ccccc2)[nH]c1NC(=O)COC(=O)c1cccc(P(=O)(O)O)c1 [Compound 355]
≤ 1	> 100	CCOC(=O)c1cc(-c2ccccc2)sc1NC(=O)CNC(=O)c1cccc(Br)c1 [Compound 358]
≤ 1	> 100	CCOC(=O)c1cc(-c2ccccc2)sc1NC(=O)COC(=O)c1cccc(C(=O)OC)c1 [Compound 359]
≤ 1	> 100	CCOC(=O)c1cc(-c2ccccc2)sc1NC(=O)CNC(=O)Cc1ccc(S(N)(=O)=O)cc1 [Compound 363]
≤ 1	> 100	CCOC(=O)c1cc(-c2ccccc2)sc1NC(=O)CNC(=O)CCc1cccc(NS(C)(=O)=O)c1 [Compound 365]
≤ 1	> 100	CCOC(=O)c1cc(-c2ccccc2)sc1NC(=O)CNC(=O)Cc1ccc(Cl)c(NS(C)(=O)=O)c1 [Compound 366]
≤ 1	> 100	CCOC(=O)c1cc(-c2ccccc2)sc1NC(=O)CNC(=O)c1cccc(P(=O)(O)O)c1 [Compound 367]
> 25	> 100	CCOC(=O)c1cc(-c2ccccc2)sc1NC(=O)CC(=O)NCc1cccc(NS(C)(=O)=O)c1 [Compound 369]

Kd [1] [µM]	EC50 [2] [µM]	Compound
> 25	> 100	CCOC(=O)c1cc(-c2ccccc2)ncc1NC(=O)COC(=O)c1cccc(NS(C)(=O)=O)c1 [Compound 372]
≤ 1	> 100	CCNC(=O)c1cc(-c2ccccc2)sc1NC(=O)CNC(=O)Cc1cccc(NS(C)(=O)=O)c1 [Compound 376]
≤ 1	> 100	CCOC(=O)c1cc(-c2ccccc2)sc1NC(=O)C1CCCCN1C(=O)Cc1cccc(NS(C)(=O)=O)c1 (stereo not shown) [Compound 380]
1 to 10	> 100	CCNC(=O)c1cc(-c2ccccc2)sc1NC(=O)CN(C)C(=O)Cc1cccc(NS(C)(=O)=O)c1 [Compound 384]
> 25	> 100	CCOC(=O)c1cc(-c2ccccc2)sc1NC(=O)Cn1cc(-c2cccc(P(=O)(O)O)c2)nn1 [Compound 386]
≤ 1	> 100	CCOC(=O)c1cc(-c2ccccc2)ncc1NC(=O)CNC(=O)Cc1cccc(NS(C)(=O)=O)c1 [Compound 387]
≤ 1	> 100	CCOC(=O)c1cc(-c2ccc(P(=O)(O)O)cc2)sc1NC(=O)COC(=O)c1cccc(NS(C)(=O)=O)c1 [Compound 388]
> 25	> 100	CCOC(=O)c1cc(-c2ccccc2)[nH]c1NC(=O)CNC(=O)c1cccc(NS(C)(=O)=O)c1 [Compound 395]
≤ 1	> 100	CCOC(=O)c1cc(-c2ccccc2)sc1NC(=O)COC(=O)C1(c2cccc(NS(C)(=O)=O)c2)CCCC1 [Compound 396]
≤ 1	> 100	CCOC(=O)c1cc(-c2ccccc2)sc1NC(=O)[C@H]1CCN(Cc2cccc(P(=O)(O)O)c2)C1 [Compound 397]
> 25	> 100	CCOC(=O)c1cc(-c2ccccc2)sc1NC(=O)[C@@H]1CCN(Cc2cccc(P(=O)(O)O)c2)C1 [Compound 398]
≤ 1	> 100	CCOC(=O)c1cc(-c2ccccc2)sc1NC(=O)COC(=O)c1cccc(S(=O)(=O)NC(C)=O)c1 [Compound 399]
1 to 10	> 100	CCOC(=O)c1sc(-c2ccccc2)cc1NC(=O)COC(=O)c1cccc(P(=O)(O)O)c1 [Compound 400]
≤ 1	50 to 100	CCOC(=O)c1cc(-c2ccccc2)sc1NC(=O)CNC(=O)Cc1ccc(P(=O)(O)O)cc1 [Compound 405]
≤ 1	> 100	CCOC(=O)c1cc(-c2ccccc2)sc1NC(=O)Cn1cc(CNC(=O)c2cccc(P(=O)(O)O)c2)nn1 [Compound 409]
> 25	> 100	CCOC(=O)c1cc(-c2ccccc2)[nH]c1NC(=O)C1CCN(C(=O)c2cccc(NS(C)(=O)=O)c2)C1 (stereo not shown) [Compound 412]

Compound	Kd [1] [µM]	EC50 [2] [µM]
CCOC(=O)c1cc(-c2ccccc2)sc1NC(=O)COC(=O)c1cccc(P(=O)(OCC)OCC)c1 [Compound 343]	≤ 1	> 100
CCOC(=O)c1cc(-c2ccccc2)sc1NC(=O)CNC(=O)c1cccc(P(=O)(OCC)OCC)c1 [Compound 344]	> 25	> 100
CCOC(=O)c1cc(-c2ccccc2)[nH]c1NC(=O)COC(=O)c1cccc(P(=O)(OCC)OCC)c1 [Compound 349]	> 25	> 100
CCOC(=O)c1sc(NC(=O)COC(=O)c2cccc(P(=O)(OCC)OCC)c2)nc1-c1ccccc1 [Compound 356]	> 25	> 100
CCOC(=O)c1cc(-c2ccccc2)sc1NC(=O)C1CCN(C(=O)c2cccc(P(=O)(OCC)OCC)c2)C1 (stereo not shown) [Compound 361]	> 25	50 to 100
CCOC(=O)c1cc(-c2ccccc2)sc1NC(=O)CN1C[C@H]2CC[C@@H](C1)N2S(C)(=O)=O [Compound 364]	> 25	> 100
CCOC(=O)c1cc(-c2ccccc2)sc1NC(=O)Cn1cc(-c2cccc(P(=O)(OCC)OCC)c2)nn1 [Compound 385]	≤ 1	> 100
CCOC(=O)c1cc(-c2ccc(P(=O)(OCC)OCC)cc2)sc1NC(=O)COC(=O)c1cccc(NS(C)(=O)=O)c1 [Compound 389]	> 25	> 100
CCOC(=O)c1cc(-c2ccccc2)sc1NC(=O)CNC(=O)Cc1ccc(P(=O)(OCC)OCC)cc1 [Compound 402]	≤ 1	50 to 100
CCOC(=O)c1cc(-c2ccccc2)[nH]c1NC(=O)[C@@H]1CCN(C(=O)c2cccc(P(=O)(OC)OCC)c2)C1 (stereo partly shown) [Compound 403]	> 25	50 to 100
CCOC(=O)c1cc(-c2ccccc2)sc1NC(=O)[C@H]1CCN(C(=O)c2cccc(P(=O)(OCC)OCC)c2)C1 [Compound 406]	≤ 1	50 to 100

Reference: patent US20260200890A1, “ADAR1 INHIBITORS AND METHODS OF USING THE SAME” (AVAMMUNE THERAPEUTICS INC., priority 2022, published 2026)
